One series concerns the target T1, hERG (Homo sapiens, UniProt Q12809).
T1 construct: host or cells: CHO-K1
Description: QPatch ion channel assay. The series is classed as cell-based. Conditions: CHO-K1 cells stably transfected with human hERG, read-out: % Inhibition (n = 2), hERG. The source says: (§1) The automated whole-cell patch-clamp (Qpatch HT) technique is used to record depolarizing currents, hNav1.5 and hCav1.2, and repolarizing potassium currents, hERG. Cells Recombinant HEK-293 cells stably transfected with human Nav1.5 cDNA, Recombinant HEK293 cell line expressing the human Cav1.2 (L-type voltage-gated calcium channel, hCav1.2 α1C/β2a/α2δ1, and recombinant CHO-K1 cells stably transfected with human hERG cDNA are used separately in each of these assays. The cells are harvested by Accutase and maintained in Serum-Free Medium at room temperature before assay. On the instrument, the cells are pipetted into each well of a 48-well plate in external solution. Test concentration stock solution is prepared in DMSO at 300× the final assay concentrations, and stored at −20 °C until the day of assay. On the day of the assay, an aliquot of the stock solution is thawed and diluted into external solution to make final test concentrations. A final concentration of 0.33% DMSO is maintained for each concentration of the assay compounds and controls. The assay is conducted at room temperature. Recording conditions hNav1.5 Peak current Onset and steady state block of peak Nav1.5 current are measured using a pulse pattern, repeated every 5 sec, consisting of a hyperpolarizing pulse to −120 mV for a 200 ms duration, depolarization to −15 mV amplitude for a 40 ms duration, followed by a step to 40 mV for 200 ms and finally a 100 ms ramp (1.2 V/s) to a holding potential of −80 mV. hCav1.2 currents are evoked following a 100 ms pulse to −60 mV followed by a 50 ms pulse to +10 mV before returning to the holding potential of −90 mV. This paradigm is delivered three times once every 20 s. Cells are held at −90 mV with a 5 s pulse to −60 mV every 20 s for a total of 120 s between each set of three pulses. The cell is held at −80 mV. Then the cell is depolarized to +40 mV for 500 ms and then to −80 mV over a 100 ms ramp to elicit the hERG tail current. This paradigm is delivered once every 8 s. The Extracellular Solution (control) is applied first and the cell is stabilized in the solution for 5 min. Then the test compound is applied from low to high concentrations sequentially on the same cell. The cells are incubated with each test concentration for 5 min. Reference compounds Tetracaine Nifedipine and E-4031 are tested concurrently for hNav1.5, hCav1.2 and hERG, respectively, at multiple concentrations to obtain an IC50 value.
(§2) The amplitude of the sodium current is calculated by measuring the difference between the peak inward current on stepping to −10 mV (i.e., peak current) and the leak current. The sodium current is assessed in vehicle control conditions and then at the end of each five (5)-minute compound application. Individual cell results are normalized to the vehicle control amplitude and the mean ± SEM is calculated for each compound concentration. These values are then plotted and estimated IC50 curve fits are calculated. The maximum inward current elicited on stepping to +10 mV for 50msec from −60 mV is measured. Compound interaction is assessed by dividing post-current amplitude (at the end of each three (3)-minute compound application) by the vehicle control amplitude and the mean calculated for each compound concentration. These values are then plotted and estimated IC50 curve fits are calculated. The percent inhibition of the hERG channel is calculated by comparing the peak (hERG tail) current amplitude before and after application of the compound (the current difference is normalized to vehicle control values).

A further series concerns the target T2, Nav1.5 (peak current) (Homo sapiens, UniProt Q14524).
T2 construct: host or cells: HEK-293
Kind of series: QPatch ion channel assay. The series is classed as cell-based. The conditions noted are these: read-out: % Inhibition (n = 2), Nav1.5.
From the text: as §1, §2
In general terms: The patch-clamp technique gives a direct electrical read-out from membranes.

For another series, the target named is T3, Cav1.2 (Homo sapiens, UniProt Q13936).
T3 construct: host or cells: HEK293
Kind of series: QPatch ion channel assay. Format: cell-based. The conditions noted are these: read-out: % Inhibition (n = 2), Cav1.2.
From the text: as §1, §2

For series [1], the system named is P. aeruginosa ATCC 27853 ompH mutants EPIR32, EPIR36, EPIR38. Description: microbe, parasite or virus in culture. The series is classed as cell-based, Pseudomonas aeruginosa. The procedure:
MIC assays for potentiation of antimicrobial activity against P. aeruginosa were performed as described previously.

Series [2] has as its system P. aeruginosa ATCC 27853. Kind of series: Neutropenic murine lung infection model. The series is classed as in vivo, CD-1 mice. Conditions: for Mean Log10 CFU (lung): +24 hr. The procedure:
For the lung infection model, mice were anesthetized by IP injection of 0.15 mL of a ketamine (40 mg/kg) + xylazine (6 mg/kg) mixture and inoculated intranasally (IN) with 0.05 mL of a 4 × 10^8 CFU/mL bacterial suspension applied dropwise to the external nares. Two hours post-infection, mice received test articles IV (EPIs) or SC (levofloxacin). At 2 h or 24 h post-infection, mice were euthanized by CO2 asphyxiation, and lungs were aseptically removed, placed in 2 mL sterile PBS, and homogenized using the same procedure described above. Homogenates were serially diluted and plated (8 µL spots) onto BHI-charcoal and citrate agar, incubated overnight at 37 °C, and colonies were counted the following day.

The subject of series [3] is P. aeruginosa ATCC 27853. The series is classed as cell-based, Pseudomonas aeruginosa. The procedure:
OmpH is a homologous periplasmic chaperone that binds newly synthesized, unfolded outer membrane proteins (OMPs) and delivers them to the outer membrane for assembly by the BAM machinery, thereby preventing aggregation and facilitating proper membrane insertion.
Frequency-of-resistance studies were carried out as described previously.

Where [4] appears, read: Pseudomonas aeruginosa, ATCC27853, EPIR32.
The mark [5] stands for this setting: Pseudomonas aeruginosa, ATCC27853, EPIR38.
Setting [6] is: levofloxacin 15 mg/kg SC QID, alone or with TXA11114 30 mg/kg IV QID.
Where [7] appears, read: levofloxacin 30 mg/kg SC QID, alone or with TXA11114 30 mg/kg IV QID.

Where two headings read alike, the source gives them in different places.

What is called inhibition is the relative decrease from the control value, in per cent.

T1 sequence (Q12809 whole entry): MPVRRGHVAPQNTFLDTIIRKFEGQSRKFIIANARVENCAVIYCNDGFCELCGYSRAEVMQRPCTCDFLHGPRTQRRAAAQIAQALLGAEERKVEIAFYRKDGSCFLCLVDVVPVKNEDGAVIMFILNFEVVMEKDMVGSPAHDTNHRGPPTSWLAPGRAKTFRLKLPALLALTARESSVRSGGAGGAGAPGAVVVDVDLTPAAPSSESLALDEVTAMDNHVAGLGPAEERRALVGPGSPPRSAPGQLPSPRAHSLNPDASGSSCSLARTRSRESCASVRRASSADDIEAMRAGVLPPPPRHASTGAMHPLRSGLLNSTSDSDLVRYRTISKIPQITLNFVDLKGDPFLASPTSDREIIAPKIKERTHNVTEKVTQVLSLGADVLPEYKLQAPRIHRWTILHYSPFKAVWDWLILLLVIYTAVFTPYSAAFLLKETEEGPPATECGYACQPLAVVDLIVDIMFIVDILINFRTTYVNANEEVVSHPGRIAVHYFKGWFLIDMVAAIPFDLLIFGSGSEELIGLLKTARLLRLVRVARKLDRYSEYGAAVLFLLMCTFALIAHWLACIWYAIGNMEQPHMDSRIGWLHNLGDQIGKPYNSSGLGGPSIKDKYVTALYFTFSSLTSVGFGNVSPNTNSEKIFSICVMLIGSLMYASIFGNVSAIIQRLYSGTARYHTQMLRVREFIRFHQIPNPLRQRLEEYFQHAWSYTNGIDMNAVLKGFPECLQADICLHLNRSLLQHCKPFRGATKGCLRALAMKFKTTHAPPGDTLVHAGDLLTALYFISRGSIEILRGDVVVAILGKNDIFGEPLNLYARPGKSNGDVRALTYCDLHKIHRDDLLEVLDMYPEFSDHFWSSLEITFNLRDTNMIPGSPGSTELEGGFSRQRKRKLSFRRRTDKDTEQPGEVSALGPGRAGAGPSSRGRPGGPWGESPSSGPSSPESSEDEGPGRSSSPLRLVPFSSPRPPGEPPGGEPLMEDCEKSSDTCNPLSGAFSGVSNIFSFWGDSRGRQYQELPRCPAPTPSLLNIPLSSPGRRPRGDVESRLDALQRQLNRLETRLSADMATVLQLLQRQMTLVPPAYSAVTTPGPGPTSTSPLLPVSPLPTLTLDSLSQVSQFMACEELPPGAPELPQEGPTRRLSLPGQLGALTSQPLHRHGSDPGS
T2 sequence (Q14524 whole entry): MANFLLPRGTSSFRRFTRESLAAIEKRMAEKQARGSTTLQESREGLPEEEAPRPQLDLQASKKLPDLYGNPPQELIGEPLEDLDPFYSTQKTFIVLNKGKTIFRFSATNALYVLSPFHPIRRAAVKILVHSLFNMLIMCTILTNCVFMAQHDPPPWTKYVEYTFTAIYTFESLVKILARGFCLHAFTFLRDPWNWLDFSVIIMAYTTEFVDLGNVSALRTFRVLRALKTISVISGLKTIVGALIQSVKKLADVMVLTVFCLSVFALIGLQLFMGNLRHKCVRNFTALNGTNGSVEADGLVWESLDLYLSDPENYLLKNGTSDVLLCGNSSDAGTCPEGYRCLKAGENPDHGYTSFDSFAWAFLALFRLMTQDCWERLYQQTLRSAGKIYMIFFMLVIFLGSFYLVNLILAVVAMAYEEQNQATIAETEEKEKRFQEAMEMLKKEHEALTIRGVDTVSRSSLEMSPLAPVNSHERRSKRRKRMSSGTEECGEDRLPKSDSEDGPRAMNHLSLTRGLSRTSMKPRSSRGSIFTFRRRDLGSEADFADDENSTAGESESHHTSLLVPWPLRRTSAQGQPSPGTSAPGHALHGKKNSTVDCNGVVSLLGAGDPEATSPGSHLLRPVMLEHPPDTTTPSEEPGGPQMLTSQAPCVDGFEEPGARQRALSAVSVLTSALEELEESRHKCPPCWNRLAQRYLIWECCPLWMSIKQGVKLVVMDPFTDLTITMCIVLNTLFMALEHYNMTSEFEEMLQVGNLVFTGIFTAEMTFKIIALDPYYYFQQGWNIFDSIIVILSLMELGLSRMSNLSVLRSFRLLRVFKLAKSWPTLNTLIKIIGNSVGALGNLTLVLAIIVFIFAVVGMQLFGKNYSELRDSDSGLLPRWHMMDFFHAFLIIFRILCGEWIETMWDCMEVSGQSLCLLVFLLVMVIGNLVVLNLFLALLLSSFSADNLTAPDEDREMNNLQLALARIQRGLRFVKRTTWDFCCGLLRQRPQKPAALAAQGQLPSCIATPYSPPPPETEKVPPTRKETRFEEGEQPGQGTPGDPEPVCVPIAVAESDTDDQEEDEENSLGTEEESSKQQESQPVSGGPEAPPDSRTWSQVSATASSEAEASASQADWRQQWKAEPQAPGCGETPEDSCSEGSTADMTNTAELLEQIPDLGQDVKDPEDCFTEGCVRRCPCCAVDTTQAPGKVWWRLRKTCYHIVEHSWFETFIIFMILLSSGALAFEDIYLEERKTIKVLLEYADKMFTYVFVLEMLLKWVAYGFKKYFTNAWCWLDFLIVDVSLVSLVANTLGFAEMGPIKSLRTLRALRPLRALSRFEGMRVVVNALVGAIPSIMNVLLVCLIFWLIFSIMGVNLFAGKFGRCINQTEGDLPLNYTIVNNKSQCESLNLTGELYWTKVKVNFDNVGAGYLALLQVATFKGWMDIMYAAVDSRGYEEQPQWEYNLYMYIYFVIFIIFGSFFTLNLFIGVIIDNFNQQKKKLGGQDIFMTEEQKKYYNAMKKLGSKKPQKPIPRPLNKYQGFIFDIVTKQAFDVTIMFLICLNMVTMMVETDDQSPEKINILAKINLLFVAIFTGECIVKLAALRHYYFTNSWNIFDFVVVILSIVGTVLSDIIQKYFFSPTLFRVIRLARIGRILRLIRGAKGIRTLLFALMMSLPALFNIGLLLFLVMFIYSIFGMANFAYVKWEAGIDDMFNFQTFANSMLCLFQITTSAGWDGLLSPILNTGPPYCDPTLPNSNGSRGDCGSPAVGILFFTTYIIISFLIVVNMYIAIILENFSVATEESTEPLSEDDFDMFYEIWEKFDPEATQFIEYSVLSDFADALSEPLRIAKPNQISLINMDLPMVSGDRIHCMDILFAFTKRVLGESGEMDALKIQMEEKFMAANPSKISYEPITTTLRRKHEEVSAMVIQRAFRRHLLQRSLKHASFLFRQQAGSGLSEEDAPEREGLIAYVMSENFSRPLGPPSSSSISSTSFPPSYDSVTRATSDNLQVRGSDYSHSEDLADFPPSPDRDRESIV

In the case of `NC[C@@H]1CN[C@H](CNC(=O)c2cc3ccc(-c4ccc(F)cc4)cc3[nH]2)C1` [TXA09155], the inhibition at 5 min, 10 µM amounted to 9.2% on hERG and 0.1% on Nav1.5 (peak current). Moreover, on Cav1.2, the inhibition at 3 min, 10 µM worked out at 12.7%.
Take `NCC(F)C[C@@H](N)CNC(=O)c1cc2ccc(-c3ccc(F)cc3)cc2[nH]1` (stereo partly drawn) [TXA11114, N-((2R)-2,5-diamino-4-fluoropentyl)-6-(4-fluorophenyl)-1H-indole-2-carboxamide]: the “Fold MIC reduction [LVX/EPI‐LVX]” value in series [1] (EPI36) and in series [1] (EPIR32) was 1 fold each time. Moreover, the “LVX MIC (+ EPI […])” value in series [1] (EPI36) was found to be 0.125; in series [1] (EPIR32), 0.25. The MIC in series [1] (EPIR36, listed as TXA) is 200 µg/mL; in series [1] (setting [4]), > 200 µg/mL; in series [1] (Pseudomonas aeruginosa, ATCC27853, EPIR36), > 200 µg/mL; in series [1] (setting [5]), 200 µg/mL. The “Effect of EPI alone on bacterial burden, lung” value in the series with P. aeruginosa ATCC 27853 [2] (30 mg/kg, IV, QID) was “did not reduce bacterial burden”. In the series with P. aeruginosa ATCC 27853 [2] (TXA11114 30 mg/kg IV QID alone), the “Mean Log10 CFU (lung)” value is reported as 8.75 log10 CFU. Further, the “Mean Log10 CFU Change vs +2 hr Control, Δlog10 (treatment-baseline), lung” value in the series with P. aeruginosa ATCC 27853 [2] (TXA11114 30 mg/kg IV QID alone) stood at 4.16 log10 CFU. In addition, the values for the inhibition at 5 min, 10 µM at hERG and on Nav1.5 (peak current) were 10.9% and -3.7%, respectively. Also, the inhibition at 3 min, 10 µM on Cav1.2 was 0.2%. The “Frequency of Resistance” value in the series with P. aeruginosa ATCC 27853 [3] is listed as <1.04 × 10^−10. The “FoR, resistance to TXA11114 alone” value with P. aeruginosa ATCC 27853 [3] (1X-MIC (100 µg/mL), ATCC 27853) is reported as 1.8 × 10^−6; in the series with P. aeruginosa ATCC 27853 [3] (4X-MIC (400 µg/mL), ATCC 27853), <3.09 × 10^−9.
For the compound `C[C@H]1COc2c(N3CCN(C)CC3)c(F)cc3c(=O)c(C(=O)O)cn1c23` [Levofloxacin, levofloxacin], the MIC in series [1] (setting [4]) stood at 0.25 µg/mL. The MIC in series [1] (setting [5]) came to 0.5 µg/mL. Moreover, in the series on P. aeruginosa ATCC 27853 [2] (setting [6]), the “Mean Log10 CFU (lung)” value was found to be 5.86 log10 CFU; the “Mean Log10 CFU Change vs +2 hr Control, Δlog10 (treatment-baseline), lung” value was 1.27 log10 CFU; the “Mean Log10 CFU Change vs +24 hr Control, lung” value is 3.03 log10 CFU. In addition, in the series on P. aeruginosa ATCC 27853 [2] (setting [7]), the “Mean Log10 CFU (lung)” value was determined as 3.98 log10 CFU and the “Reduction of lung CFU at 24 h post-infection” value is recorded as 0.61 log10 CFU. Also, the “Frequency of Resistance” value with P. aeruginosa ATCC 27853 [3] (ATCC 27853, levofloxacin 4× MIC (4 μg/mL) alone) is recorded as 3.80 × 10^−8.

The values are drawn from article PMC13114161 (Antibiotics, 2026).
